In brackets after ≈: the same amount, converted by molar mass. Entries after “also recorded” stand apart in the source; their conditions may differ. Values belong to the compound of their own block, whether it stands above or below them.
Assays:
coagulation factor VIII = assay: coagulation factor analysis in plasma; assay type: biochemical, human
coagulation factor XII = target: T1, coagulation factor XII (Homo sapiens, UniProt P00748); assay: coagulation factor analysis in plasma; assay type: biochemical
T1 construct: clotting factor activity assay
T1 sequence (P00748 20-615): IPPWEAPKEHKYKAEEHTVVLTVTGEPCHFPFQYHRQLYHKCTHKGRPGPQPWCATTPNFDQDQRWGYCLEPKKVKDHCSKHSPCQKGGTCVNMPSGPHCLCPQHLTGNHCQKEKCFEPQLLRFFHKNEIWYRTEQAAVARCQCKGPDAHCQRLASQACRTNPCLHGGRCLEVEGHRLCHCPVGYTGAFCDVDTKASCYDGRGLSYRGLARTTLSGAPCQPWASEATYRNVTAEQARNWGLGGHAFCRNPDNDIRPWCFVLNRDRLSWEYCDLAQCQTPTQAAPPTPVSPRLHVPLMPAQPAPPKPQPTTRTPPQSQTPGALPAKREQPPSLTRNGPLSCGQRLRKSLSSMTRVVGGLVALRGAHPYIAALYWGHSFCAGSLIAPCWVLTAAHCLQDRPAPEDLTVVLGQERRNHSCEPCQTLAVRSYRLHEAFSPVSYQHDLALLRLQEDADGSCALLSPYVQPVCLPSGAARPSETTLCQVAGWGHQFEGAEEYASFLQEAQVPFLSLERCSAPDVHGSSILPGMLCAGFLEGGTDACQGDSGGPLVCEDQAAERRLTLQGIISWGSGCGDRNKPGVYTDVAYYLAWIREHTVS

[1] = system: blood coagula on the artificial surface; assay: deposition of blood coagula on taurolin-contacted artificial surface in vivo; settings: after contact of synthetic resin or metal surface with taurolin, implantation in organism with blood flow
Text: Therefore, this coagulation action can serve for the use of the taurolin for the treatment of surfaces of medical apparatus which are temporarily introduced into the blood stream, such as e.g. vein catheters (which, untreated, tend to blockage due to blood coagula which again represents a breeding place for bacteria, whereby the danger of a sepsis is brought about). The treatment of the apparatus can be carried out e.g. with an aqueous taurolin solution, especially a 1% aqueous taurolin solution. By means of an intermittent rinsing of vascular catheters, it is, in this way e.g. possible to prevent the coagula formation on the catheter tips.

blood plasma [2] = settings: "Taurolin", Bruckner and Pfirrmann 1985; cited from earlier work
fresh blood = assay: fibrin deposition on taurolin-treated cellulose acetate foils in contact with fresh blood; design: species or system human
solubility = assay type: physicochemical; settings: 50 mg./5 ml. blood plasma corresponds to a 1% solution; read-out: solubility limit
coagulation factor II = assay: coagulation factor analysis in plasma; assay type: biochemical, human
[3] = system: pooled plasma of various experimental persons; assay: PTT test on pooled plasma mixed with taurolin; assay type: biochemical, human; settings: for PTT: 30 minutes
Description: (§1) Therefore, in comparison with known anti-coagulants, the use of taurolin has the advantage that a sufficient blood coagulatability always still remains and, therefore, an overdosing is not possible.
(§2) Samples of, in each case, 5 ml. of a pooled plasma of various experimental persons were mixed with increasing amounts of taurolin, namely, with amounts of 0 (1), 10 (2), 20 (3), 30 (4), 40 (5) and 50 (6) mg. of taurolin/5 ml. plasma (the figures given in brackets give the sample numbers).
(§3) The Quick test and the PTT test was carried out for the samples 1 to 6 and the following results (30 minutes) obtained (Table 1): […]

[4] = cited from earlier work
antithrombin III = assay: function of antithrombin III; assay type: biochemical
coagulation factor V = assay: coagulation factor analysis in plasma; assay type: biochemical, human
coagulation factor X = assay: coagulation factor analysis in plasma; assay type: biochemical, human
[5] = system: pooled plasma of various experimental persons; assay: Quick test on pooled plasma mixed with taurolin; assay type: biochemical, human; settings: for Quick test (%): 30 minutes
Description: as §1, §2, §3

blood plasma [6] = assay: suppression of blood coagulation on addition to blood plasma; assay type: biochemical, human; settings: 5 ml. pooled plasma, up to max. 50 mg.
Description: as §1, §2

coagulation factor VII = assay: coagulation factor analysis in plasma; assay type: biochemical, human
coagulation factor IX = assay: coagulation factor analysis in plasma; assay type: biochemical, human
coagulation factor XI = assay: coagulation factor analysis in plasma; assay type: biochemical, human
[7] = 10 mg. taurolin/5 ml. plasma (sample 2)
[8] = 20 mg. taurolin/5 ml. plasma (sample 3)
[9] = 30 mg. taurolin/5 ml. plasma (sample 4)
[10] = 40 mg. taurolin/5 ml. plasma (sample 5)
[11] = 50 mg. taurolin/5 ml. plasma (sample 6)
[12] = maximum possible dosaging in the blood

direct action on the Factor XII of the coagulation system (coagulation factor XII): marked direct action | activity at 2000 µg/mL (coagulation factor XII; human, 10 mg. taurolin/5 ml. plasma (sample 2)): 177% | activity at 4000 µg/mL (coagulation factor XII; human, 20 mg. taurolin/5 ml. plasma (sample 3)): 77% | activity at 6000 µg/mL (coagulation factor XII; human, 30 mg. taurolin/5 ml. plasma (sample 4)): 64% | activity at 8000 µg/mL (coagulation factor XII; human, 40 mg. taurolin/5 ml. plasma (sample 5)): 55% | activity at 10000 µg/mL (coagulation factor XII; human, 50 mg. taurolin/5 ml. plasma (sample 6)): 61% | solubility (solubility): 10000 µg/mL (≈ 35.2 mM)
Compound: O=S1(=O)CCN(CN2CCS(=O)(=O)NC2)CN1 [taurolin, 4,4'-Methylene-bis-(tetrahydro-2H-1,2,4-thiadiazine-1,1-dioxide)]
coagulation factor VIII (coagulation factor VIII; [7]): 48% | coagulation factor VIII (coagulation factor VIII; [8]): 21% | coagulation factor VIII (coagulation factor VIII; [9]): 13% | coagulation factor VIII (coagulation factor VIII; [10]): 6% | coagulation factor VIII (coagulation factor VIII; [11]): 6% | deposition of blood coagula on the artificial surface in vivo [1]: continuously effectively prevents the deposition of blood coagula; also recorded: effectively continuously prevents the deposition of blood coagula | influence on blood coagulation as stated in the literature (blood plasma [2]): does not influence the blood coagulation | blood coagulation or fibrin deposition on the wall (fresh blood; cellulose acetate foil contacted with taurolin/blood plasma mixture (taurolin 1% in plasma), rinsed, fresh blood 30 minutes at 37° C.): no blood coagulation or fibrin deposition on the wall | fibrin fibre deposition on the surface (electron raster photographs) (fresh blood; cellulose acetate foil treated with 15 aqueous solution of taurolin 30 minutes at 37° C., then fresh blood 30 minutes at 37° C.): no fibrin fibre deposition on the surface could be ascertained | coagulation factor II (coagulation factor II; [7]): 96% | coagulation factor II (coagulation factor II; [8]): 87% | coagulation factor II (coagulation factor II; [9]): 90% | coagulation factor II (coagulation factor II; [10]): 75% | coagulation factor II (coagulation factor II; [11]): 74% | PTT [3, 7]: 38.0 s | PTT [3, 8]: 43.0 s | PTT [3, 9]: 48.8 s | PTT [3, 10]: 55.9 s | PTT [3, 11]: 61.8 s | PTT value (highest reached) [3, 12]: ≤ 60 s | solubility in water [4]: about 1% | function of antithrombin III (antithrombin III): inhibits dependent upon concentration | coagulation factor V (coagulation factor V; [7]): 121% | coagulation factor V (coagulation factor V; [8]): 110% | coagulation factor V (coagulation factor V; [9]): 92% | coagulation factor V (coagulation factor V; [10]): 81% | coagulation factor V (coagulation factor V; [11]): 79% | coagulation factor X (coagulation factor X; [7]): 75% | coagulation factor X (coagulation factor X; [8]): 65% | coagulation factor X (coagulation factor X; [9]): 56% | coagulation factor X (coagulation factor X; [10]): 53% | coagulation factor X (coagulation factor X; [11]): 50% | Quick test (%) [5, 7]: 65% | Quick test (%) [5, 8]: 53% | Quick test (%) [5, 9]: 44% | Quick test (%) [5, 10]: 39% | Quick test (%) [5, 11]: 35% | Quick value (lowest reached) [5, 12]: ≥ 20% | suppression of blood coagulation (blood plasma [6]): not completely suppressed | coagulation factor VII (coagulation factor VII; [7]): 79% | coagulation factor VII (coagulation factor VII; [8]): 74% | coagulation factor VII (coagulation factor VII; [9]): 74% | coagulation factor VII (coagulation factor VII; [10]): 77% | coagulation factor VII (coagulation factor VII; [11]): 73% | coagulation factor IX (coagulation factor IX; [7]): 153% | coagulation factor IX (coagulation factor IX; [8]): 81% | coagulation factor IX (coagulation factor IX; [9]): 63% | coagulation factor IX (coagulation factor IX; [10]): 65% | coagulation factor IX (coagulation factor IX; [11]): 68% | coagulation factor XI (coagulation factor XI; [7]): 301% | coagulation factor XI (coagulation factor XI; [8]): 197% | coagulation factor XI (coagulation factor XI; [9]): 140% | coagulation factor XI (coagulation factor XI; [10]): 83% | coagulation factor XI (coagulation factor XI; [11]): 47%

Compound: heparin
suppression of blood coagulation (blood plasma [6]): completely suppressed

Reference: patent publication US5077281A, “Novel use of taurolin” (priority 1985, dated 1991)
